In patent US11850247B2, “Antiviral compounds” (REGENTS OF THE UNIVERSITY OF MINNESOTA, priority 2020, dated 2023):

Experiments:
HIV-1 = experiment: Anti-HIV-1 activity in TZM-GFP cells (viral LTR-activated GFP expression); format: cell-based; settings: for EC50: Human immunodeficiency virus 1, HIV-1 strain MOI=1, GFP positive cells counted after 48 hours; for inhibition at 2 µM: Human immunodeficiency virus 1, 2 μM compound; for inhibition at 2 µM / inhibition at 20 µM: HIV-1 MOI=1; for inhibition at 20 µM: Human immunodeficiency virus 1, 20 μM compound
Method: The potency of HIV-1 inhibition by a compound was based on its inhibitory effect on viral LTR-activated GFP expression compared with that of compound-free (DMSO) controls. Briefly, TZM-GFP cells were plated at density of 1×10^4 cells per well in a 96-well plate. 24 hours later, media was replaced with increasing concentrations of compound. 24 hours post treatment, cells were exposed to an HIV-1 strain (MOI=1).
(§1) The cytotoxicity of each compound was also determined in TZM-GFP cells. Cells were plated at a density of 1×10^4 cells per well in a 96-well plate and were continuously exposed to increasing concentrations of a compound for 72 hours. The number of viable cells in each well was determined using a Cell Proliferation Kit II (XTT), and 50% cytotoxicity concentration (CC50) values were determined. All the cell-based assays were conducted in duplicate and in at least two independent experiments. For the EC50 and CC50 dose responses, values were plotted in GraphPad Prism 5 and analyzed with the log (inhibitor) vs. normalized response-variable slope equation. Final values were calculated in each independent assay and the average values were determined. Statistical analysis (calculation of standard deviation) was performed by using Microsoft Excel.

[1] = Cytotoxicity in TZM-GFP cells (XTT); format: cell-based; settings: human, 72 hours exposure, XTT
Method: as §1

[2] = target: covalently-crosslinked hexameric CA A14C/E45C/W184A/M185A (CA121) (Human immunodeficiency virus type 1 group M subtype B, UniProt P12493, A146C/E177C/M317A/W316A); experiment: Thermal shift assay (TSA), CA hexamer stability; format: binding, HIV-1; settings: compound 20 μM, ΔTm=Tm−T0 vs DMSO
[3] = Microsomal stability assay, human liver microsomes; format: in vitro ADME
Method: (§2) The in vitro microsomal stability assay was conducted in duplicate in mouse and human liver microsomal systems, which were supplemented with nicotinamide adenine dinucleotide phosphate (NADPH) as a cofactor. […] The reaction was initiated by addition of 1 mM NADPH, followed by incubation at 37° C. A negative control was performed in parallel in the absence of NADPH to measure any chemical instability or non-NADPH dependent enzymatic degradation for each compound. At various time points (0, 5, 15, 30, and 60 minutes), 1 volume of reaction aliquot was taken and quenched with 3 volumes of acetonitrile containing an appropriate internal standard and 0.1% formic acid. The samples were then vortexed and centrifuged at 15,000 rpm for 5 minutes at 4° C. The supernatants were collected and analyzed by LC-MS/MS to determine the in vitro metabolic half-life (t1/2).

[4] = Microsomal stability assay, mouse liver microsomes; format: in vitro ADME; settings: NADPH
Method: as §2

[5] = pH 7.4, with Cobicistat 0.5 μM (CYP3A inhibitor), human liver microsomes, 1 μM compound, NADPH, with 0.5 μM Cobicistat (CYP3A inhibitor), read-out: HLM (+Cobi) half-life (t1/2)
[6] = human liver microsomes, 1 μM compound, NADPH, without Cobicistat
[7] = 1 μM compound, without Cobicistat
[8] = pH 7.4, human liver microsomes, 1 μM compound, NADPH, without Cobicistat, read-out: HLM half-life (t1/2)
[9] = pH 7.4, 1 μM compound, without Cobicistat, read-out: MLM half-life (t1/2)
[10] = pH 7.4, with Cobicistat 0.5 μM (CYP3A inhibitor), 1 μM compound, with 0.5 μM Cobicistat (CYP3A inhibitor), read-out: MLM (+Cobi) half-life (t1/2)

SMILES | CC50 at 72 h [1] [µM] | TSA ΔTm (° C.) [2] [°C] | inhibition at 2 µM (HIV-1) [%] | inhibition at 20 µM (HIV-1) [%] | half-life at 1 μM [3, 8] [min] | half-life at 1 μM [4, 9] [min] | also measured
O=C(Cn1c(=O)[nH]c2ccccc2c1=O)N[C@@H](Cc1ccccc1)C(=O)N1CCC[C@H]1C(=O)Nc1ccccc1 [Example 33, (S)-1-((2-(2,4-dioxo-1,4-dihydroquinazolin-3(2H)-yl)acetyl)-L-phenylalanyl)-N-phenylpyrrolidine-2-carboxamide] | > 100 | 2.5 | – | – | – | – | EC50 (HIV-1): 1.6 ± 0.1 µM; half-life in HLMs relative to PF74 ([3]; human liver microsomes, ratio of t1/2 to that of PF74): 44 fold; half-life at 1 μM [3, 5]: 578 min; half-life in combination with Cobicistat compared with PF74 ([3]; with CYP3A inhibitor Cobicistat, microsome species not given): significantly longer half-life than that of PF74
CN(C(=O)[C@H](Cc1ccccc1)NC(=O)CNC(=O)c1ccccc1)c1cccc(F)c1 [Example 39, (S)—N-(2-((1-((3-fluorophenyl)(methyl)amino)-1-oxo-3-phenylpropan-2-yl)amino)-2-oxoethyl)benzamide] | > 50 | 0 | 3 | 94 | – | – | –
CN(C(=O)[C@H](Cc1ccccc1)NC(=O)CNC(=O)c1ccccc1)c1cccc(Br)c1 [Example 40, (S)—N-(2-((1-((3-bromophenyl)(methyl)amino)-1-oxo-3-phenylpropan-2-yl)amino)-2-oxoethyl)benzamide] | > 50 | 2.2 | 38 | 97 | – | – | –
CCN(C(=O)[C@H](Cc1ccccc1)NC(=O)CNC(=O)c1ccccc1)c1ccccc1 [Example 41, (S)—N-(2-((1-(ethyl(phenyl)amino)-1-oxo-3-phenylpropan-2-yl)amino)-2-oxoethyl)benzamide] | > 50 | −2.5 | – | – | – | – | EC50 (HIV-1): 2.5 ± 0.03 µM
Cc1cn(CC(=O)N[C@@H](Cc2ccccc2)C(=O)N(C)c2ccccc2)c(=O)[nH]c1=O [Example 42, (S)—N-methyl-2-(2-(5-methyl-2,4-dioxo-3,4-dihydropyrimidin-1(2H)-yl)acetamido)-N,3-diphenylpropanamide] | > 50 | 0.5 | 35 | 95 | – | – | –
Cc1ccc(N(C)C(=O)[C@H](Cc2ccccc2)NC(=O)Cn2cc(C)c(=O)[nH]c2=O)cc1 [Example 43, (S)—N-methyl-2-(2-(5-methyl-2,4-dioxo-3,4-dihydropyrimidin-1(2H)-yl)acetamido)-3-phenyl-N-(p-tolyl)propenamide] | > 50 | 0.6 | 7 | 85 | – | – | –
Cc1cn(CC(=O)N[C@@H](Cc2ccccc2)C(=O)N(C)c2ccc(Cl)cc2)c(=O)[nH]c1=O [Example 44, (S)—N-(4-chlorophenyl)-N-methyl-2-(2-(5-methyl-2,4-dioxo-3,4-dihydropyrimidin-1(2H)-yl)acetamido)-3-phenylpropanamide] | > 50 | 1.7 | – | – | – | – | EC50 (HIV-1): 1.7 ± 0.2 µM
Cc1cn(CC(=O)N[C@@H](Cc2ccccc2)C(=O)N(C)c2cccc(Cl)c2)c(=O)[nH]c1=O [Example 45, (S)—N-(3-chlorophenyl)-N-methyl-2-(2-(5-methyl-2,4-dioxo-3,4-dihydropyrimidin-1(2H)-yl)acetamido)-3-phenylpropanamide] | > 50 | 0.6 | 37 | 95 | – | – | –
Cc1cn(CC(=O)N[C@@H](Cc2ccccc2)C(=O)N(C)c2ccc(F)cc2)c(=O)[nH]c1=O [Example 46, (S)—N-(4-fluorophenyl)-N-methyl-2-(2-(5-methyl-2,4-dioxo-3,4-dihydropyrimidin-1(2H)-yl)acetamido)-3-phenylpropanamide] | > 50 | 0 | 6 | 94 | – | – | –
Cc1cn(CC(=O)N[C@@H](Cc2ccccc2)C(=O)N(C)c2cccc(F)c2)c(=O)[nH]c1=O [Example 47, (S)—N-(3-fluorophenyl)-N-methyl-2-(2-(5-methyl-2,4-dioxo-3,4-dihydropyrimidin-1(2H)-yl)acetamido)-3-phenylpropanamide] | > 50 | 0.9 | 0 | 74 | – | – | –
Cc1cn(CC(=O)N[C@@H](Cc2ccccc2)C(=O)N(C)c2cccc(Br)c2)c(=O)[nH]c1=O [Example 48, (S)—N-(3-bromophenyl)-N-methyl-2-(2-(5-methyl-2,4-dioxo-3,4-dihydropyrimidin-1(2H)-yl)acetamido)-3-phenylpropanamide] | > 50 | 0.5 | 22 | 99.7 | – | – | –
Cc1[nH]c2ccccc2c1CC(=O)N[C@@H](Cc1ccccc1)C(=O)N(C)c1ccccc1 [PF-74, reference compound] | – | – | – | – | – | – | HLM half-life (t1/2) [3, 6]: less than 1 min; MLM half-life (t1/2) [4, 7]: 0.6 min; MLM half-life (t1/2) ([4]; 1 μM compound, without Cobicistat, listed as PF74): less than 1 min
Cc1cccc2c1NC(=O)C2CC(=O)N[C@@H](Cc1ccccc1)C(=O)N(C)c1ccccc1 (stereo partly shown) [drawing 177] | – | – | – | – | 7 | 1 | –
Cc1cccc2c1NC(=O)C2CC(=O)N[C@@H](Cc1ccccc1)C(=O)N(C)c1cccc(F)c1 (stereo partly shown) [drawing 178] | – | – | – | – | 2.5 | 1.1 | half-life at 1 μM [3, 5]: 433 min; half-life at 1 μM [4, 10]: 20 min
Cc1ccc(C)c2c1NC(=O)C2CC(=O)N[C@@H](Cc1ccccc1)C(=O)N(C)c1ccccc1 (stereo partly shown) [drawing 179] | – | – | – | – | 1.5 | 0.6 | –
Cc1ccc(C)c2c1NC(=O)C2CC(=O)N[C@@H](Cc1ccccc1)C(=O)N(C)c1cccc(Cl)c1 (stereo partly shown) [drawing 180] | – | – | – | – | 6.7 | 1.4 | half-life at 1 μM [3, 5]: 107 min; half-life at 1 μM [4, 10]: 34 min
CN(C(=O)[C@H](Cc1ccccc1)NC(=O)Cc1ccc2ccccc2c1)c1ccccc1 [drawing 181] | – | – | – | – | 1.8 | 0.5 | –
CN(C(=O)[C@H](Cc1ccccc1)NC(=O)Cc1ccc2ccccc2c1)c1ccc(Cl)cc1 [drawing 182] | – | – | – | – | 2.7 | 1.4 | half-life at 1 μM [3, 5]: 239 min; half-life at 1 μM [4, 10]: 18 min
CN(C(=O)[C@H](Cc1ccccc1)NC(=O)Cc1cccc2ccccc12)c1ccccc1 [drawing 183] | – | – | – | – | 0.6 | 0.5 | –
CN(C(=O)[C@H](Cc1ccccc1)NC(=O)Cc1cccc2ccccc12)c1ccc(Cl)cc1 [drawing 184] | – | – | – | – | 1.1 | 0.6 | half-life at 1 μM [3, 5]: 102 min; half-life at 1 μM [4, 10]: 7.4 min
COc1ccc(N(C)C(=O)[C@H](Cc2ccccc2)NC(=O)CN2C(=O)NC3(CCCCC3)C2=O)cc1 [drawing 186] | – | – | – | – | 5.2 | 0.7 | –
Cc1ccc(N(C)C(=O)[C@H](Cc2ccccc2)NC(=O)CN2C(=O)NC3(CCCCC3)C2=O)cc1 [drawing 187] | – | – | – | – | 3.3 | 1.2 | –
CN(C(=O)[C@H](Cc1ccccc1)NC(=O)CN1C(=O)NC2(CCCCC2)C1=O)c1ccc(F)cc1 [drawing 188] | – | – | – | – | 1.1 | 0.5 | –
CN(C(=O)[C@H](Cc1ccccc1)NC(=O)CN1C(=O)NC2(CCCCC2)C1=O)c1ccc(Cl)cc1 [drawing 189] | – | – | – | – | 3.1 | 0.9 | –
CN(C(=O)[C@H](Cc1ccccc1)NC(=O)CNC(=O)c1ccccc1)c1ccccc1 [drawing 190] | – | – | – | – | – | – | HLM half-life (t1/2) [3, 6]: 15 min; MLM half-life (t1/2) [4, 7]: 3.6 min
Cc1ccc(N(C)C(=O)[C@H](Cc2ccccc2)NC(=O)CNC(=O)c2ccccc2)cc1 [drawing 191] | – | – | – | – | – | – | HLM (+Cobi) half-life (t1/2) ([3]; human liver microsomes, 1 μM compound, NADPH, with 0.5 μM Cobicistat (CYP3A inhibitor)): 42 min; HLM half-life (t1/2) [3, 6]: 22 min; MLM (+Cobi) half-life (t1/2) ([4]; 1 μM compound, with 0.5 μM Cobicistat (CYP3A inhibitor)): 34 min; MLM half-life (t1/2) [4, 7]: 5.0 min
